Results on 6 molecules are retold here after patent US11629179B2, “TWEAK-receptor agonists for use in combination with immunotherapy of a cancer” (Stichting Het Nederlands Kanker Instituut - Antoni van …, priority 2018, dated 2023).

One series relates to D10 melanoma cells. In words: T cell cytotoxicity assay with MART-1 T cells. It is filed as cell-based, human. How it is done: (§1) 1.2×10^5 tumor cells were seeded per well in 12-well culture plates (Greiner). CD8 T cells were admixed in serial dilutions (two-fold, starting at a 1:1 ratio). After 24 hours, T cells were washed away. After a further 4 days, plates were fixed and stained for 1 hour using a crystal violet solution containing 0.1% crystal violet (Sigma) and 50% methanol (Honeywell). For quantification, remaining crystal violet was solubilized in 10% acetic acid (Sigma). Absorbance of this solution was measured on an Infinite 200 Pro spectrophotometer (Tecan) at 595 nm. In select experiments, tumor viability data was assessed with CellTiter-Blue (Promega) following manufacturer's instructions. In indicated experiments, 1 uM of birinapant (Selleck Chemicals) in DMSO (Sigma) was added during co-cultures. For Incucyte (Incucyte Zoom, Essen Bioscience) experiments, 5×10^3 tumor cells were seeded per well in 96-well culture plates (Greiner). CD8 T cells were admixed in indicated ratios and a Caspase-3/7 dye (Essen Bioscience) was added. Growth of these co-cultures was followed for 48 hours. […] In indicated experiments, enavatuzumab (indicated concentrations; Creative Biolabs) in the presence or absence of protein G (50 μg/mL; Thermo Fisher Scientific) was added. To cluster enavatuzumab, cells were pretreated for 1 hour with enavatuzumab, then protein G was added for a further 7 hours. Then, CD8 T cells were added to the tumor cells for a further 16 hours.

Series [1] concerns panel of 11 human melanoma and lung cancer cell lines. The experiment in a line: MART-1 T cell cytotoxicity assay in a panel of tumor cell lines. The format is cell-based. How it is done:
as §1, with “Then, CD8 T cells were added to the tumor cells for a further 16 hours.” left out

A further series has as its system SK-MEL-23. The experiment in a line: Caspase-3/7 dye tumor cell apoptosis after MART-1 T cell attack, SK-MEL-23. It is filed as cell-based, human. To be noted: combined with TRAF2 inactivation; neutralizing TNF antibody (FIG. 6B). How it is done:
as §1, with “Then, CD8 T cells were added to the tumor cells for a further 16 hours.” left out

Series [2] concerns BLM. The experiment in a line: T cell cytotoxicity assay of BLM clones. It is filed as cell-based, human. To be noted: wildtype and TRAF2-deficient BLM clones in vitro (FIG. 11F). How it is done: as §1, with “Then, CD8 T cells were added to the tumor cells for a further 16 hours.” left out
Series [3] deals with BLM. The experiment in a line: NSG murine xenograft of BLM clones with ACT of MART-1 T cells. The format is in vivo, mouse. How it is done:
For xenograft studies, 1×10^6 D10 or BLM tumor cells were admixed with Matrigel (Corning) and injected subcutaneously into NSG-β2M^null mice (The Jackson Laboratory). Growth was monitored three times per week with calipers, and tumor size was calculated using the following formula: ½×length (mm)×width (mm). When tumors reached indicated sizes, mice were randomized over different treatment groups in a blinded fashion and were administered 5×10^6 human CD8 T cells, intravenously in the tail vein. In vivo persistence of T cells was stimulated by administering 100.000 U IL-2 (Proleukin, Novartis) intraperitoneally daily for three consecutive days. In selected experiments, birinapant (MedChem Express) was administered intraperitoneally once every three days. […] In selected experiments, the PD-1-blocking antibody nivolumab (Slotervaart Hospital) was given once weekly (5 mg/kg). For studies in immunocompetent mice, 3×10^5 D4M.3A cells were injected subcutaneously into C57BI/6J mice (Janvier) and tumor growth was monitored three times per week with calipers.
To prepare lysates, snapfrozen tumor piecesd were weighed and lysed in RIPA buffer (50 mM TRIS pH 8.0, 150 mM NaCl, 1% Nonidet P40, 0.5% sodium deoxycholate, 0.1% SDS) supplemented with complete protease inhibitor cocktail (Roche Applied Science) and phosphatase inhibitors 10 mM NaF, 1 mM Na3VO4, 1 mM sodium pyrophosphate and 10 mM beta-glycerophosphate. Protein concentration was determined using a Bradford Protein Assay (Biorad).

A further series concerns cIAP1/2. Particulars: Benetatos et al., 2014; FIG. 11C; cited from earlier work.
The next series has as its system D10. The experiment in a line: NSG murine xenograft of D10 cells with adoptive cell transfer. The format is in vivo, mouse. Particulars: anti-TNF antibody injected (FIG. 4C, D). How it is done: For xenograft studies, 1×10^6 D10 or BLM tumor cells were admixed with Matrigel (Corning) and injected subcutaneously into NSG-β2M^null mice (The Jackson Laboratory). Growth was monitored three times per week with calipers, and tumor size was calculated using the following formula: ½×length (mm)×width (mm). When tumors reached indicated sizes, mice were randomized over different treatment groups in a blinded fashion and were administered 5×10^6 human CD8 T cells, intravenously in the tail vein. In vivo persistence of T cells was stimulated by administering 100.000 U IL-2 (Proleukin, Novartis) intraperitoneally daily for three consecutive days. In selected experiments, birinapant (MedChem Express) was administered intraperitoneally once every three days. Birinipant was formulated at 3 mg/ml in 12.5% captisol (CyDex Pharmaceuticals) in water adjusted to pH 4 with hydrochloric acid. […] In selected experiments, the PD-1-blocking antibody nivolumab (Slotervaart Hospital) was given once weekly (5 mg/kg). For studies in immunocompetent mice, 3×10^5 D4M.3A cells were injected subcutaneously into C57BI/6J mice (Janvier) and tumor growth was monitored three times per week with calipers.

Another series relates to TRAF2. In words: Western blot analysis of TRAF2 in treated D10 melanoma cells. It is filed as cell-based, human. How it is done: 1.2×10^5 tumor cells were seeded per well in 12-well culture plates (Greiner). CD8 T cells were admixed in serial dilutions (two-fold, starting at a 1:1 ratio). After 24 hours, T cells were washed away. After a further 4 days, plates were fixed and stained for 1 hour using a crystal violet solution containing 0.1% crystal violet (Sigma) and 50% methanol (Honeywell). For quantification, remaining crystal violet was solubilized in 10% acetic acid (Sigma). Absorbance of this solution was measured on an Infinite 200 Pro spectrophotometer (Tecan) at 595 nm. In select experiments, tumor viability data was assessed with CellTiter-Blue (Promega) following manufacturer's instructions. In indicated experiments, 1 uM of birinapant (Selleck Chemicals) in DMSO (Sigma) was added during co-cultures. […]
Cells were lysed in RIPA buffer (50 mM TRIS pH 8.0, 150 mM NaCl, 1% Nonidet P40, 0.5% sodium deoxycholate, 0.1% SDS) supplemented with complete protease inhibitor cocktail (Roche Applied Science) and phosphatase inhibitors 10 mM NaF, 1 mM Na3VO4, 1 mM sodium pyrophosphate and 10 mM beta-glycerophosphate. Protein concentration was determined using a Bradford Protein Assay (Biorad). […] Western blots were then incubated in SuperSignal West Dura Extended Duration Substrate (Thermo Scientific) and luminescence was captured on high performance autoradiography films (Amersham). […]
For orientation: In western blotting, separated proteins are transferred to a membrane and probed.

The subject of series [4] is panel of 38 human tumor cell lines. Particulars: cited from earlier work.

`CC[C@H](NC(=O)[C@H](C)NC)C(=O)N1C[C@@H](O)C[C@H]1Cc1c(-c2[nH]c3cc(F)ccc3c2C[C@@H]2C[C@H](O)CN2C(=O)[C@H](CC)NC(=O)[C@H](C)NC)[nH]c2cc(F)ccc12` [birinapant, (2S)—N-[(2S)-1-[(2R,4S)-2-[[6-fluoro-2-[6-fluoro-3-[[(2R,4S)-4-hydroxy-1-[(2S)-2-[[(2S) (methylamino)propanoyl]amino]butanoyl]pyrrolidin-2-yl]methyl]-1H-indol-2-yl]-1H-indolyl]methyl]-4-hydroxypyrrolidin-1-yl]-1-oxobutan-2-yl]-2-(methylamino)propanamide]: the “sensitivity to T cell killing in combination with TRAF2 inactivation” value in the series with D10 melanoma cells (D10 cells sgCtrl or sgTRAF2, with or without birinapant (FIG. 11D)) is recorded as “synergized with TRAF2 inactivation in inducing sensitivity to T cell killing”. The “tumor cell survival, sgTRAF2+DMSO vs. sgTRAF2+Bir” value in [1] (MART-1 T cell cytotoxicity assay, p<0.001 (FIG. 6A)) is given as “significant for all cell lines”. Besides, in [1] (all tested tumor cell lines (FIG. 6A)), the “sensitivity to T cell killing in combination with TRAF2 deletion” value is “strong synergy between TRAF2 deletion and pharmaceutical targeting of cIAP1/2 in all tested tumor cell lines”. In addition, the “sensitivity to T cell-derived TNF” value in the series with SK-MEL-23 is recorded as “induced a de novo sensitivity to T cell-derived TNF in SK-MEL-23”. For the same molecule, in the series on BLM [2], the “response to T cells, TRAF2 deletion plus cIAP1/2 inhibition” value is “synergistic response”. Further, in the series on BLM [3] (TRAF2 KO tumors treated with birinapant (FIG. 6E)), the tumor control result is recorded as “better tumor control when compared to control tumors”. The “tumor volume and survival” value in the series with BLM [3] (TRAF2 genetic inactivation plus birinapant, ACT with MART-1 T cells (FIG. 6D)) is “induced both a reduction in tumor volume and extended survival”. Further, the “degradation of BIRC2/3 protein products (cIAP1/2)” value in the series on cIAP1/2 is recorded as “known to degrade both BIRC2/3 protein products”.

On to “anti-PD-1: PD-1-blocking antibody nivolumab given once weekly (5 mg/kg)”, for which the “tumor control and overall survival” value in the series with BLM [3] (anti-PD-1 added to TRAF2 KO plus birinapant (FIG. 6E)) was “superior tumor control, improving overall survival”. Also, the rejection of tumors result with BLM [3] (anti-PD-1 alone, wildtype BLM tumors (FIG. 6E)) is recorded as “failed to affect rejection of VVT tumors”. The “intratumoral TNF after ICB” value in the series with BLM [3] (non-responding setting (FIG. 11I)) is “failed to see an upregulation of TNF after ICB”.

Take infliximab: TNF blocking antibody: in the series with D10, the “tumor control of TRAF2-deficient tumors after ACT with MART-1 T cells” value is “this tumor control was dependent on TNF”.

B1: enavatuzumab: agonistic anti-Fn14 antibody (Creative Biolabs) (antibody, chains of the INN, looked up, V domains shown)
VH: EVQLVESGGGLVQPGGSLRLSCAASGFTFSSYWMSWVRQAPGKGLEWVAEIRLKSDNYATHYAESVKGRFTISRDDSKNSLYLQMNSLRAEDTAVYYCTGYYADAMDYWGQGTLVTVSS
VL: DIQMTQSPSSLSASVGDRVTITCRASQSVSTSSYSYMHWYQQKPGKAPKLLIKYASNLESGVPSRFSGSGSGTDFTLTISSLQPEDFATYYCQHSWEIPYTFGGGTKVEIK
With B1, in the series on TRAF2 (D10 melanoma cells treated 8 hours, presence or absence of protein G (FIG. 3I)), the “degradation of TRAF2” value was “caused degradation of TRAF2, but only upon receptor clustering by the addition of protein G”. The “sensitivity to T cell cytotoxicity” value in the series with D10 melanoma cells (clustered with protein G, D10 and SK-MEL-147, 1:8 T cell:tumor cell ratio (FIG. 3J, 9C)) is “induced sensitivity to T cell cytotoxicity in two melanoma cell lines”. The “dependence of sensitization on T cell-derived TNF” value with D10 melanoma cells (neutralization with anti-TNF antibody (FIG. 9D)) is “dependent on T cell-derived TNF”. For the same molecule, the “dependence of sensitization on TRAF2” value in the series on D10 melanoma cells (wildtype or TRAF2-deficient tumor cells (FIG. 3J)) is listed as “sensitization by enavatuzumab was dependent on TRAF2”.

B2: Fn14 agonistic antibody: humanized anti-Fn14 agonistic antibody described by Michaelson et al. (2011) (antibody, chains of the INN, looked up, V domains shown)
VH: B1 VH
VL: B1 VL
As for B2, the “cell lines with growth inhibition” value in [4] is given as “approximately 50%”.

B3: TWEAK: ligand of Fn14 (TNF-like weak inducer of apoptosis); recombinant TWEAK (Peprotech) (protein)
chain: SAPKGRKTRARRAIAAHYEVHPRPGQDGAQAGVDGTVSGWEEARINSSSPLRYNRQIGEFIVTRAGLYYLYCQVHFDEGKAVYLKLDLLVDGVLALRCLEEFSATAASSLGPQLRLCQVSGLLALRPGSSLRIRTLPWAHLKAAPFLTYFGLFQVH
On to B3, for which the “degradation of TRAF2” value in the series on TRAF2 (D10 melanoma cells treated 8 hours with recombinant human TWEAK (FIG. 3G)) is given as “led to the degradation of TRAF2”. In addition, in the series on D10 melanoma cells (250 ng/mL TWEAK during exposure to MART-1 T cells (FIG. 3H)), the “sensitization of tumor cells to T cell killing” value is “sensitized tumor cells to T cell killing”.
